In paper PMC9413440, “An Iterative Approach Guides Discovery of the FabI Inhibitor Fabimycin, a Late-Stage Antibiotic Candidate with In Vivo Efficacy against Drug-Resistant Gram-Negative Infections” (ACS Central Science, 2022):
Values after ≈ are worked out from the molar mass of the structure shown.

How the values were obtained:
[1] = tested on: K. pneumoniae AR-0113; experiment: MIC, broth microdilution (CLSI); assay type: cell-based; conditions: Klebsiella pneumoniae, AR0113; K. pneumoniae AR-0113 clinical isolate
Procedure: (§1) II. Materials and Methods for Biological Experiments
(§2) S. aureus ATCC 29213 and E. coli MG1655 were obtained from the American Type Culture Collection (ATCC). E. coli BW25113 and E. coli JW5503 were obtained from the Keio Collection. AR-bank strains were obtained from the Centers for Disease Control and Prevention and FDA Antibiotic Resistance Isolate Bank.
(§3) Antimicrobial susceptibility tests
(§4) Susceptibility testing was performed in biological triplicate, unless noted otherwise, using the micro-dilution broth method as outlined by the Clinical and Laboratory Standards Institute. Bacteria were cultured with cation-adjusted Mueller Hinton broth (Sigma Aldrich, catalogue number: 90922). […]
(§5) Error bars represent the standard error of the mean of three biological replicates. All compounds evaluated in biological assays were ≥95% pure.

[2] = tested on: A. baumannii AR-0313; experiment: MIC, broth microdilution (CLSI); assay type: cell-based; conditions: Acinetobacter baumannii, AR0313; A. baumannii AR-0313 clinical isolate; † = dose-independent trailing growth
Procedure: as §1, §2, §3, §4, §5

[3] = tested on: E. coli ΔtolC (JW5503); experiment: MIC, broth microdilution (CLSI); assay type: cell-based, Escherichia coli
Procedure: as §1, §2, §3, §4
(§6) NH3: m/z 391.2 → 171.0. Fabimycin: m/z 405.3 → 145.3. Power analysis was not used to determine the number of replicates. Error bars represent the standard error of the mean of three biological replicates. All compounds evaluated in biological assays were ≥95% pure.

[4] = tested on: S. aureus ATCC 29213; experiment: MIC, broth microdilution (CLSI); assay type: cell-based; conditions: Staphylococcus aureus, ATCC29213; S. aureus 29213
Procedure: as §1, §2, §3, §4, §6

[5] = tested on: A. baumannii AR-0273; experiment: MIC, broth microdilution (CLSI); assay type: cell-based; conditions: Acinetobacter baumannii, AR0273; A. baumannii AR-0273 clinical isolate
Procedure: as §1, §2, §3, §4, §6

[6] = tested on: A. baumannii AR-0299; experiment: MIC, broth microdilution (CLSI); assay type: cell-based; conditions: Acinetobacter baumannii, AR0299; A. baumannii AR-0299 clinical isolate; † = dose-independent trailing growth
Procedure: as §1, §2, §3, §4, §6

[7] = tested on: A. baumannii AR-0033; experiment: MIC, broth microdilution (CLSI); assay type: cell-based; conditions: Acinetobacter baumannii, AR0033; A. baumannii AR-0033 clinical isolate; † = dose-independent trailing growth
Procedure: as §1, §2, §3, §4, §6

[8] = tested on: K. pneumoniae BAA-2472; experiment: MIC, broth microdilution (CLSI); assay type: cell-based; conditions: Klebsiella pneumoniae, BAA2472
Procedure: as §1, §2, §3, §4, §6

[9] = tested on: E. coli AR-0085; experiment: MIC, broth microdilution (CLSI); assay type: cell-based; conditions: Escherichia coli, AR0085; E. coli AR-0085 clinical isolate
Procedure: as §1, §2, §3, §4, §6

[10] = tested on: E. coli MG1655; experiment: MIC, broth microdilution (CLSI); assay type: cell-based; conditions: Escherichia coli
Procedure: as §1, §2, §3, §4, §6

[11] = tested on: K. pneumoniae AR-0066; experiment: MIC, broth microdilution (CLSI); assay type: cell-based; conditions: Klebsiella pneumoniae, AR0066; K. pneumoniae AR-0066 clinical isolate
Procedure: as §1, §2, §3, §4, §6

[12] = tested on: E. coli AR-0048; experiment: MIC, broth microdilution (CLSI); assay type: cell-based; conditions: Escherichia coli, AR0048; E. coli AR-0048 clinical isolate
Procedure: as §1, §2, §3, §4, §6

[13] = tested on: K. pneumoniae AR-0560; experiment: MIC, broth microdilution (CLSI); assay type: cell-based; conditions: Klebsiella pneumoniae, AR0560; K. pneumoniae AR-0560 clinical isolate
Procedure: as §1, §2, §3, §4, §6

[14] = tested on: E. coli MG1655; parameters: method as in PMID 31740764; conditions: cited from earlier work
[15] = target: T1, E. coli FabI (Escherichia coli, UniProt P0AEK4); experiment: In vitro FabI enzymatic inhibition assay; assay type: biochemical; conditions: EcFabI; Morrison's quadratic fit; 5 nM enzyme; read-out: Ki app
T1 construct: His(6) with TEV site (cleaved yes); made in house; host or cells: E. coli BL21(DE3)
Procedure: (§7) supplemented with 100 µg/mL ampicillin at 37°C until OD600 reached 0.6-0.7. The cells were induced with 1mM IPTG and incubated for 20 hours at 18°C and spun down at 8000 rpm for 15 minutes. Cell pellet was resuspended in the lysis buffer (50 mM Tris-HCl pH 8.0, 500 mM Na Cl, 20 mM imidazole, 10% glycerol, 0.5 mM TCEP, protease inhibitor and Lysonase) and passed through microfluidizer followed by centrifugation and filtration to remove cell debris. The clarified lysate was supplemented with 20 mM imidazole and passed over a HisTrap column (Cytiva) pre-equilibrated with the wash buffer (50 mM Tris-HCl pH 8.0, 500 mM NaCl, 20 mM imidazole, 10% glycerol, 0.5 mM TCEP). The column was washed with the wash buffer and eluted over a 20-500 mM imidazole gradient. The appropriate fractions were pooled, and the histidine tag was removed by TEV cleavage. The protein mixture was passed over a HisTrap column to separate the cleaved protein from the uncleaved ones. The cleaved protein was pooled and passed over an S75 size exclusion column (GE LifeSciences) pre-equilibrated with 50 mM Tris-HCl pH 8.0, 500 mM NaCl, 0.5 mM TCEP and 10% glycerol. Fractions containing pure protein were pooled, concentrated at 10 mg/mL and stored at -80°C. […]
(§8) In vitro FabI enzymatic inhibition assay
(§9) Recombinant E. coli and A. baummani FabI enzymes were used in a continuous NADH absorbance assay (20 µL in 384w format). Compounds and the Crotonyl-CoA substrate (Sigma–Aldrich 28007) were dispensed into a plate (GeinerBio-One 781101). The reaction was initiated by the addition of a reaction master mix solution containing enzyme and NADH (Sigma–Aldrich N8129) suspended in reaction buffer (50 mM HEPES pH 7.4, 150 mM NaCl, 1 mM EDTA, 0.01 mg/mL BSA, 0.01% Tween). Final concentrations were 5 nM enzyme, 150 μM Crotonyl-CoA, 380 μM NADH, 0.05% DMSO in 1x reaction buffer. After shaking for 5 seconds the reaction was monitored at NADH absorbance (340nm, 25°C) using a Molecular Devices SpectraMax M5 microplate reader. The linear portion of the progress curve was fit using plate-reader software. Percentage activity was calculated relative to DMSO only and no-substrate controls in each plate and the data were fit to Morrison’s quadratic using Graphpad Prism 9.3 to obtain apparent inhibition constant (Ki app) values. […]
(§10) 480 Real-Time PCR System as a function of a temperature ramp (25-95°C; 0.1°/s) and the Tm was calculated using the […]

[16] = target: A. baumannii FabI (Acinetobacter baumannii, UniProt D0CAD5); experiment: In vitro FabI enzymatic inhibition assay; assay type: biochemical; conditions: AbFabI; Morrison's quadratic fit; 5 nM enzyme; read-out: Ki app
Procedure: as §7, §8, §9, §10

[17] = tested on: panel of 10 clinical isolates (two E. coli, four K. pneumoniae, four A. baumannii); experiment: MIC, Gram-negative clinical isolate challenge panel; assay type: cell-based; conditions: 10 clinical isolates; read-out: MIC, all strains of the clinical isolate challenge panel

T1 sequence (P0AEK4 whole entry): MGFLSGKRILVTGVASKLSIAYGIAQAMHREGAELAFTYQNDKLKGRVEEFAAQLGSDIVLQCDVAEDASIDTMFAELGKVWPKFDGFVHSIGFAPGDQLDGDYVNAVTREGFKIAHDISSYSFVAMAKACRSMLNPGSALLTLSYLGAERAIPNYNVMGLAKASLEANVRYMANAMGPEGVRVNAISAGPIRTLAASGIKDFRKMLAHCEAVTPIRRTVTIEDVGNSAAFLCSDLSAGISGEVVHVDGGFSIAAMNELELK
A. baumannii FabI, sequence (D0CAD5 entry or part of it): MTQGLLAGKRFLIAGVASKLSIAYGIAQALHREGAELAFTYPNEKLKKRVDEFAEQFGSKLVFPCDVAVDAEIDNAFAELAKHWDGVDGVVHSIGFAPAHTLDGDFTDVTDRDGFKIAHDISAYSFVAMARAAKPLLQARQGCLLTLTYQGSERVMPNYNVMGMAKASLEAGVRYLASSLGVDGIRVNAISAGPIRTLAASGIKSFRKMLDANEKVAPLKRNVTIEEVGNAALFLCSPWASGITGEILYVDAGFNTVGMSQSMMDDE

SMILES: Cc1c(CN(C)C(=O)/C=C/c2cnc3c(c2)CC2(CC(N)C2)C(=O)N3)oc2ccccc12 (racemic) [(±)-3]
- MIC [1]: 16 µg/mL (≈ 37.2 µM)
- MIC [2]: 32 µg/mL (≈ 74.3 µM)
- MIC ([3]; Escherichia coli): 0.062 µg/mL (≈ 0.144 µM)
- MIC [4]: 0.016 µg/mL (≈ 0.0372 µM)
- MIC [5]: 16 µg/mL (≈ 37.2 µM)
- MIC [6]: 16 µg/mL (≈ 37.2 µM)
- MIC [7]: 16 µg/mL (≈ 37.2 µM)
- MIC [8]: 8 µg/mL (≈ 18.6 µM)
- MIC [9]: 16 µg/mL (≈ 37.2 µM)
- MIC [10]: 4 µg/mL (≈ 9.29 µM)
- MIC [11]: 8 µg/mL (≈ 18.6 µM)
- MIC [12]: 16 µg/mL (≈ 37.2 µM)
- MIC [13]: 8 µg/mL (≈ 18.6 µM)

SMILES: Cc1c(CN(C)C(=O)/C=C/c2cnc3c(c2)CCC(=O)N3)oc2ccccc12 [Debio-1452, reference compound]
- accumulation in Gram-negative bacteria (class in Figure 1A) [14]: Non-accumulator
- MIC [1]: > 32 µg/mL
- MIC [2]: > 32 µg/mL
- MIC ([3]; E. coli ΔtolC = JW5503, efflux-deficient): 0.062 µg/mL (≈ 0.165 µM)
- MIC [5]: > 32 µg/mL
- MIC [6]: > 32 µg/mL
- MIC [7]: > 32 µg/mL
- MIC [8]: > 32 µg/mL
- MIC [9]: > 32 µg/mL
- MIC [11]: > 32 µg/mL
- MIC [12]: > 32 µg/mL
- MIC [13]: > 32 µg/mL
- Ki [15]: 97 ± 19 nM
- Ki [16]: 431 ± 85 nM

SMILES: Cc1c(CN(C)C(=O)/C=C/c2cnc3c(c2)CCC(N)C(=O)N3)oc2ccccc12 (racemic) [(±)-7]
- MIC [17]: ≤ 8 µg/mL
- MIC [1]: 8 µg/mL (≈ 19.8 µM)
- MIC [2]: 8 µg/mL (≈ 19.8 µM)
- MIC ([3]; Escherichia coli): 0.031 µg/mL (≈ 0.0766 µM)
- MIC [4]: 0.016 µg/mL (≈ 0.0396 µM)
- MIC [5]: 8 µg/mL (≈ 19.8 µM)
- MIC [6]: 4 µg/mL (≈ 9.89 µM)
- MIC [7]: 4 µg/mL (≈ 9.89 µM)
- MIC [8]: 8 µg/mL (≈ 19.8 µM)
- MIC [9]: 4 µg/mL (≈ 9.89 µM)
- MIC [10]: 4 µg/mL (≈ 9.89 µM)
- MIC [11]: 8 µg/mL (≈ 19.8 µM)
- MIC [12]: 4 µg/mL (≈ 9.89 µM)
- MIC [13]: 8 µg/mL (≈ 19.8 µM)

SMILES: Cc1c(CN(C)C(=O)/C=C/c2cnc3c(c2)CC2(CCC(N)CC2)C(=O)N3)oc2ccccc12 (racemic) [(±)-5]
- MIC ([3]; Escherichia coli): 0.062 µg/mL (≈ 0.135 µM)
- MIC [4]: 0.016 µg/mL (≈ 0.0349 µM)
- MIC [10]: 16 µg/mL (≈ 34.9 µM)

SMILES: Cc1c(CN(C)C(=O)/C=C/c2cnc3c(c2)CCC(CCN)C(=O)N3)oc2ccccc12 (racemic) [(±)-9]
- MIC ([3]; Escherichia coli): 0.125 µg/mL (≈ 0.289 µM)
- MIC [4]: 0.062 µg/mL (≈ 0.143 µM)
- MIC [10]: 32 µg/mL (≈ 74 µM)

SMILES: Cc1c(CN(C)C(=O)/C=C/c2cnc3c(c2)CC2(CC(CN)C2)C(=O)N3)oc2ccccc12 (racemic) [(±)-4]
- MIC ([3]; Escherichia coli): 0.125 µg/mL (≈ 0.281 µM)
- MIC [4]: 0.031 µg/mL (≈ 0.0697 µM)
- MIC [10]: 16 µg/mL (≈ 36 µM)
